Reference: patent US11773078B2, “Furin inhibitors” (Glaxosmithkline Intellectual Property Development Limited, priority 2018, dated 2023)

Key:
[1] = molecular target: T1, furin (endogenous protease) in U20S cells (Homo sapiens, UniProt P09958); test: Furin cell-based assay (image-based, Golgi-targeted GFP with BMP10 furin/PCSK cleavage site); conditions: 24-hour incubation, read-out: furin golgi cell pXC50 (converted);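 note: Read-out is mean GFP fluorescence of Golgi puncta per cell by high-content imaging, retained when furin inhibited, over an eleven-point 0.00017–10 µM series, four-parameter fit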
T1 construct: the endogenous protease cleaves GFP; endogenous in cells; host or cells: U2OS cells transduced with a BacMam reporter

[2] = molecular target: T2, Furin (108-574-Tev-Flag-His) enzyme (Homo sapiens, UniProt P09958); test: Furin enzyme assay; type: biochemical; conditions: for IC50: read-out: furin enzyme pIC50 (converted)
T2 construct: Furin (108-574-Tev-Flag-His) enzyme was expressed and purified from CHO cells; TEV cleavage site (C); FLAG (C); His (C); made in house; host or cells: CHO cells
Method in brief: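 Compounds ran as 11-point threefold dilutions (0.00017–10 μM final) against 40 pM furin, purified from CHO cells, for 2 h at room temperature. Buffer: 100 mM HEPES pH7.5 with 1 mM CaCl2 and 0.005% Triton X-100. Envision readout. Four-parameter curve gives pXC50.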

T1 sequence (P09958 108-794): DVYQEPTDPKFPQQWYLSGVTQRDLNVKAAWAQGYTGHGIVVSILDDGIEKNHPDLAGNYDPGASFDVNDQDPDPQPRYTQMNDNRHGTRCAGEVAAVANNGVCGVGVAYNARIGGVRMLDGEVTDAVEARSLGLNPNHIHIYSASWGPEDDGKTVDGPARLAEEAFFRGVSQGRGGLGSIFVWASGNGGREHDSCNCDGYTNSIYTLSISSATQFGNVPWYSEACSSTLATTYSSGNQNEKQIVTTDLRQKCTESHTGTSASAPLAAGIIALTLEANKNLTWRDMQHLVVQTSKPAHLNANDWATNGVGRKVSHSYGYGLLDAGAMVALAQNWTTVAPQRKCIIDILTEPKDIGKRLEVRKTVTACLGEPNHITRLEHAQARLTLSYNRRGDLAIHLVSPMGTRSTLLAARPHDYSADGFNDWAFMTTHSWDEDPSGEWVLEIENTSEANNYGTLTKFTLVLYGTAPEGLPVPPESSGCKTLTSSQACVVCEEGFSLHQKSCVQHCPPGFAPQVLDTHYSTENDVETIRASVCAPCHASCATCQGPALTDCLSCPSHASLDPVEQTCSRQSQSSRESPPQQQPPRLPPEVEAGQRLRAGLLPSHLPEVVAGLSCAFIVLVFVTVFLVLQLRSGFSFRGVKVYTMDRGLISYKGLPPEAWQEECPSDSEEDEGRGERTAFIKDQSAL
T2 sequence (P09958 108-574): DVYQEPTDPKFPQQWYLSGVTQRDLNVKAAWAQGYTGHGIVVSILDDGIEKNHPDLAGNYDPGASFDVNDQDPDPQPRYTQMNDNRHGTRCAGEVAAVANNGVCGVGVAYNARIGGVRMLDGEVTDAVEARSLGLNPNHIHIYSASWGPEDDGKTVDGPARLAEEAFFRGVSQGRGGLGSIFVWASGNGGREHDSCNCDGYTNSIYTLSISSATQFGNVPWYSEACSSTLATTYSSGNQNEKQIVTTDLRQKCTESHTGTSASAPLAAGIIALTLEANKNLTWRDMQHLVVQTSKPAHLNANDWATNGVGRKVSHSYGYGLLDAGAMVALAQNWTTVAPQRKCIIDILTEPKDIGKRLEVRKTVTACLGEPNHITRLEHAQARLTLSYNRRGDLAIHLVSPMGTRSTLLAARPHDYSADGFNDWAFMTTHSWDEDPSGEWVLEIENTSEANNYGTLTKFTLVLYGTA

EC50 [1] [nM] | IC50 [2] [nM] | furin enzyme pIC50 [2] | SMILES
25.1 | 3.98 | – | O=C(O)CC1CCN(Cc2cc(Oc3cnc(N4CCNC5(CC5)C4)nc3)nc(-c3cc(Cl)cc(Cl)c3)c2)CC1 [Example 164, 2-(1-((2-((2-(4,7-diazaspiro[2.5]octan-7-yl)pyrimidin-5-yl)oxy)-6-(3,5-dichlorophenyl)pyridin-4-yl)methyl)piperidin-4-yl)acetic acid]
31.6 | – | 8.4 | NC1(CO)CCN(c2ncc(Oc3cc(CN4CCC(CC(=O)O)CC4)cc(-c4cc(Cl)cc(Cl)c4)n3)cn2)CC1 [Example 165, 2-(1-((2-((2-(4-amino-4-(hydroxymethyl)piperidin-1-yl)pyrimidin-5-yl)oxy)-6-(3,5-dichlorophenyl)pyridin-4-yl)methyl)piperidin-4-yl)acetic acid]
63.1 | – | 8.5 | O=C(O)CC1CCN(Cc2cc(Oc3ccc(N4CCCNCC4)nc3)nc(-c3cc(Cl)cc(Cl)c3)c2)CC1 [Example 166, 2-(1-((2-((6-(1,4-Diazepan-1-yl)pyridin-3-yl)oxy)-6-(3,5-dichlorophenyl)pyridin-4-yl)methyl)piperidin-4-yl)acetic acid]
50.1 | – | 8.3 | CC(=O)NCC1CCN(Cc2cc(Oc3cnc(N4CCN(CCS(C)(=O)=O)CC4)nc3)cc(-c3cc(Cl)cc(Cl)c3)c2)CC1 [Example 167, N-((1-((3′,5′-Dichloro-5-((2-(4-(2-(methylsulfonyl)ethyl)piperazin-1-yl)pyrimidin-5-yl)oxy)-[1,1′-biphenyl]-3-yl)methyl)piperidin-4-yl)methyl)acetamide]
25.1 | – | 9.3 | CC(=O)NCC1CCN(Cc2cc(Oc3cnc(N4CCN(CCC(=O)O)CC4)nc3)cc(-c3cc(Cl)cc(Cl)c3)c2)CC1 [Example 168, 3-(4-(5-((5-((4-(Acetamidomethyl)piperidin-1-yl)methyl)-3′,5′-dichloro-[1,1′-biphenyl]-3-yl)oxy)pyrimidin-2-yl)piperazin-1-yl)propanoic acid]
1260 | 0.0316 | – | CC(=O)NCC1CCN(Cc2cc(Oc3ccc(N4CCN(CCC(=O)O)CC4)nn3)nc(-c3cc(Cl)cc(Cl)c3)c2)CC1 [Example 169, 3-(4-(6-((4-((4-(acetamidomethyl)piperidin-1-yl)methyl)-6-(3,5-dichlorophenyl)pyridin-2-yl)oxy)pyridazin-3-yl)piperazin-1-yl)propanoic acid]
12.6 | 0.794 | – | CC(=O)NCC1CCN(Cc2cc(Oc3cnc(N4CCN(CCC(N)=O)CC4)nc3)cc(-c3cc(Cl)cc(Cl)c3)c2)CC1 [Example 170, 3-(4-(5-((5-((4-(acetamidomethyl)piperidin-1-yl)methyl)-3′,5′-dichloro-[1,1′-biphenyl]-3-yl)oxy)pyrimidin-2-yl)piperazin-1-yl)propanamide]
2 | – | 10.7 | CNC(=O)NCC1CCN(Cc2cc(Oc3cnc(N4CCN(CCCO)CC4)nc3)nc(-c3cc(Cl)cc(Cl)c3)c2)CC1 [Example 171, 1-((1-((2-(3,5-dichlorophenyl)-6-((2-(4-(3-hydroxypropyl)piperazin-1-yl)pyrimidin-5-yl)oxy)pyridin-4-yl)methyl)piperidin-4-yl)methyl)-3-methylurea]
1.26 | 0.398 | – | CC(=O)NCC1CCN(Cc2cc(Oc3cnc(N4CCN(CCC5(C(=O)O)CC5)CC4)nc3)nc(-c3cc(Cl)cc(Cl)c3)c2)CC1 [Example 173, 1-(2-(4-(5-((4-((4-(acetamidomethyl)piperidin-1-yl)methyl)-6-(3,5-dichlorophenyl)pyridin-2-yl)oxy)pyrimidin-2-yl)piperazin-1-yl)ethyl)cyclopropanecarboxylic acid]
20 | – | 9.2 | CC(=O)NCC1CCN(Cc2cc(Oc3ccc(N4CCN(CCC(C)C(=O)O)CC4)nc3)nc(-c3cc(Cl)cc(Cl)c3)c2)CC1 (centres unmarked) [Example 174, 4-(4-(5-((4-((4-(acetamidomethyl)piperidin-1-yl)methyl)-6-(3,5-dichlorophenyl)pyridin-2-yl)oxy)pyridin-2-yl)piperazin-1-yl)-2-methylbutanoic acid]
